In general, IC50 refers to the concentration at which inhibition is half-maximal.

In the first assay the target is T1, human Bradykinin B1 receptor (Homo sapiens, UniProt P46663).
T1 construct: host or cells: CHO-K1
T1 sequence (P46663 1-353): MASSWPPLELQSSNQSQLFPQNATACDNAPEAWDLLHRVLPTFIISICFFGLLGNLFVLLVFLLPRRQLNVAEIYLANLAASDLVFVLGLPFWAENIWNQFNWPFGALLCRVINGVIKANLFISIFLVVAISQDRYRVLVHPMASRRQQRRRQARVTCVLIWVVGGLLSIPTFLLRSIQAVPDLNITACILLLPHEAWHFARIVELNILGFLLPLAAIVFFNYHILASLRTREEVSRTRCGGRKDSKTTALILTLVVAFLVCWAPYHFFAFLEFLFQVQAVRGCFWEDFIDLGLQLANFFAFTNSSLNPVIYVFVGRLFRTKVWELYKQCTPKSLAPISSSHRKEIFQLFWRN
Nature of the assay: Calcium flux Assay (FLIPR) with recombinant CHO-K1 cells expressing human Bradykinin B1 receptor, in presence (hB1 IC50) or absence (hB1 free IC50) of 0.1% BSA. Format: cell-based. The conditions noted are these: in absence of 0.1% BSA, read-out: hB1 free IC50. For orientation: A change in cytosolic calcium serves as a functional read-out for many receptors and channels.
With `N#Cc1ncc(-c2ccc(NC(=O)C3(c4cccc(Cl)c4)CC3)cc2-c2nnn[nH]2)cn1` [Example 334, 1-(3-chlorophenyl)-N-[4-(2-cyanopyrimidin-5-yl)-3-(1H-tetrazol-5-yl)phenyl]cyclopro-panecarboxa-mide], the IC50 amounted to 0.0998 µM.

For `O=C(Nc1ccc(-c2cncc(F)c2)c(-c2nnn[nH]2)c1)C1(c2cccc(Cl)c2)CC1` [Example 335, 1-(3-chlorophenyl)-N-[4-(5-fluoropyridin-3-yl)-3-(1H-tetrazol-5-yl)phenyl]cyclopro-panecarboxa-mide], the IC50 is 0.298 µM.

Regarding `Cn1ncc2cc(-c3ccc(NC(=O)C4(c5cccc(Cl)c5)CC4)cc3-c3nnn[nH]3)ccc21` [Example 339, 1-(3-chlorophenyl)-N-[4-(1-methyl-1H-indazol-5-yl)-3-(1H-tetrazol-5-yll)phenyl]cyclopro-panecarboxa-mide], the IC50 came to 0.0237 µM.

As to `O=C(Nc1ccc(-c2ccc(Cl)nc2)c(-c2nnn[nH]2)c1)C1(c2cccc(Cl)c2)CC1` [Example 341, 1-(3-chlorophenyl)-N-[4-(6-chloropyridin-3-yl)-3-(1H-tetrazol-5-yl)phenyl]cyclopro-panecarboxa-mide], the IC50 turned out to be 0.0873 µM.

Regarding `O=C(Nc1ccc(-n2cc(C(F)(F)F)cn2)c(-c2nnn[nH]2)c1)C1(c2ccc(C(F)(F)F)cc2F)CC1` [Example 345, 1-[2-Fluoro-4-(trifluoromethyl)phenyl]-N-{3-(1H-tetrazol-5-yl)-4-[4-(trifluoromethyl)-1H-pyrazol-1-yl]phenyl}cyclopropanecarboxamide], the IC50 came out at 0.0285 µM.

Take `O=C(Nc1ccc(-n2cc(C(F)F)cn2)c(-c2nnn[nH]2)c1)C1(c2ccc(C(F)(F)F)cc2F)CC1` [Example 346, N-{4-[4-(Difluoromethyl)-1H-pyrazol-1-yl]-3-(1H-tetrazol-5-yl)phenyl}-1-[2-fluoro-4-(trifluoromethyl)phenyl]cyclopro-panecarboxamide]: the IC50 came out at 0.0659 µM.

For `O=C(Nc1ccc(-n2cnc(C(F)(F)F)c2)c(-c2nnn[nH]2)c1)C1(c2ccc(C(F)(F)F)cc2F)CC1` [Example 347, 1-[2-Fluoro-4-(trifluoromethyl)phenyl]-N-{3-(1H-tetrazol-5-yl)-4-[4-(trifluoromethyl)-1H-imidazol-1-yl]phenyl}cyclopro-panecarboxa-mide], the IC50 stood at 0.0966 µM.

On to `O=C(Nc1ccc(-n2ccc(C(F)(F)F)n2)c(-c2nnn[nH]2)c1)C1(c2ccc(C(F)(F)F)cc2F)CC1` [Example 348, 1-[2-Fluoro-4-(trifluoromethyl)phenyl]-N-{3-(1H-tetrazol-5-yl)-4-[3-(trifluoromethyl)-1H-pyrazol-1-yl]phenyl}cyclopro-panecarboxa-mide], for which the IC50 was 0.122 µM.

With `O=C(Nc1ccc(-n2cc(C(F)(F)F)cn2)c(-c2nnn[nH]2)c1)C1(c2cccc(Cl)c2)CC1` [Example 349, 1-(3-Chlorophenyl)-N-{3-(1H-tetrazol-5-yl)-4-[4-(trifluoromethyl)-1H-pyrazol-1-yl]phenyl}cyclopro-panecarboxa-mide], the IC50 was 0.59 µM.

Take `O=C(Nc1ccc(-n2cc(C(F)F)cn2)c(-c2nnn[nH]2)c1)C1(c2cccc(Cl)c2)CC1` [Example 350, 1-(3-Chlorophenyl)-N-{4-[4-(difluoromethyl)-1H-pyrazol-1-yl]-3-(1H-tetrazol-5-yl)phenyl}cyclopro-panecarboxa-mide]: the IC50 was 0.804 µM.

In the case of `O=C(Nc1ccc(-n2cc(C(F)(F)F)cn2)c(-c2nnn[nH]2)c1)C1(c2ccc(F)c(F)c2)CC1` [Example 351, 1-(3,4-Difluorophenyl)-N-{3-(1H-tetrazol-5-yl)-4-[4-(trifluoromethyl)-1H-pyrazol-1-yl]phenyl}cyclopro-panecarboxa-mide], the IC50 came out at 1.06 µM.

In the case of `O=C(Nc1ccc(-n2cnc(C(F)(F)F)c2)c(-c2nnn[nH]2)c1)C1(c2cccc(Cl)c2)CC1` [Example 352, 1-(3-Chlorophenyl)-N-{3-(1H-tetrazol-5-yl)-4-[4-(trifluoromethyl)-1H-imidazol-1-yl]phenyl}cyclopro-panecarboxa-mide], the IC50 came out at 1.2 µM.

As for `O=C(Nc1ccc(-n2cc(C(F)F)cn2)c(-c2nnn[nH]2)c1)C1(c2ccc(F)c(F)c2)CC1` [Example 353, N-{4-[4-(Difluoromethyl)-1H-pyrazol-1-yl]-3-(1H-tetrazol-5-yl)phenyl}-1-(3,4-difluorophenyl)cy-clopropanecar-boxamide], the IC50 is 1.21 µM.

In the case of `O=C(Nc1ccc(-n2ccc(C(F)(F)F)n2)c(-c2nnn[nH]2)c1)C1(c2cccc(Cl)c2)CC1` [Example 354, 1-(3-Chlorophenyl)-N-{3-(1H-tetrazol-5-yl)-4-[3-(trifluoromethyl)-1H-pyrazol-1-yl]phenyl}cyclopro-panecarboxa-mide], the IC50 came to 1.88 µM.

As for `O=C(Nc1ccc(-n2ccc(C(F)(F)F)n2)c(-c2nnn[nH]2)c1)C1(c2ccc(F)c(F)c2)CC1` [Example 355, 1-(3,4-Difluorophenyl)-N-{3-(1H-tetrazol-5-yl)-4-[3-(trifluoromethyl)-1H-pyrazol-1-yl]phenyl}cyclopro-panecarboxa-mide], the IC50 is 1.88 µM.

As for `O=C(Nc1ccc(-n2cnc(C(F)(F)F)c2)c(-c2nnn[nH]2)c1)C1(c2ccc(F)c(F)c2)CC1` [Example 356, 1-(3,4-Difluorophenyl)-N-{3-(1H-tetrazol-5-yl)-4-[4-(trifluoromethyl)-1H-imidazol-1-yl]phenyl}cyclopro-panecarboxa-mide], the IC50 is 2.35 µM.

With `O=C(Nc1ccc(-n2cnc(C3CCC3)n2)c(-c2nnn[nH]2)c1)C1(c2cccc(Cl)c2)CC1` [Example 357, 1-(3-chlorophenyl)-N-[4-(3-cyclobutyl-1H-1,2,4-triazol-1-yl)-3-(1H-tetrazol-5-yl)phenyl]cyclopro-panecarboxa-mide], the IC50 amounted to 0.0448 µM.

Turning to `O=C(Nc1ccc(-n2cnc(C(F)(F)F)n2)c(-c2nnn[nH]2)c1)C1(c2ccc(F)c(F)c2)CC1` [Example 358, 1-(3,4-difluorophenyl)-N-{3-(1H-tetrazol-5-yl)-4-[3-(trifluoromethyl)-1H-1,2,4-triazol-1-yl]phenyl}cyclopro-panecarboxa-mide], the IC50 came out at 2.97 µM.

In the case of `Cc1nc(C(F)(F)F)nn1-c1ccc(NC(=O)C2(c3cccc(Cl)c3)CC2)cc1-c1nnn[nH]1` [Example 359, 1-(3-chlorophenyl)-N-{4-[5-methyl-3-(trifluoromethyl)-1H-1,2,4-triazol-1-yl]-3-(1H-tetrazol-5-yl)phenyl}cyclopro-panecarboxa-mide], the 50% inhibitory concentration (IC50) stood at 0.676 µM.

Turning to `Cc1nc(C(F)(F)F)nn1-c1ccc(NC(=O)C2(c3ccc(F)c(F)c3)CC2)cc1-c1nnn[nH]1` [Example 360, 1-(3,4-difluorophenyl)-N-{4-[5-methyl-3-(trifluoromethyl)-1H-1,2,4-triazol-1-yl]-3-(1H-tetrazol-5-yl)phenyl}cyclopro-panecarboxa-mide], the IC50 stood at 1.7 µM.

For the compound `O=C(Nc1ccc(-n2cc(C(F)(F)F)nn2)c(-c2nnn[nH]2)c1)C1(c2ccc(C(F)(F)F)cc2F)CC1` [Example 361, 1-[2-fluoro-4-(trifluoromethyl)phenyl]-N-{3-(1H-tetrazol-5-yl)-4-[4-(trifluoromethyl)-1H-1,2,3-triazol-1-yl]phenyl}cyclopro-panecarboxa-mide], the IC50 turned out to be 0.419 µM.

With `O=C(Nc1ccc(-n2cnc(C(F)(F)F)c2)c(-c2nnn[nH]2)c1)C1(c2ccc(OC(F)(F)F)cc2F)CC1` [Example 362, 1-[2-Fluoro-4-(trifluoromethoxy)phenyl]-N-{3-(1H-tetrazol-5-yl)-4-[4-(trifluoromethyl)-1H-imidazol-1-yl]phenyl}cyclopro-panecarboxa-mide], the IC50 came to 0.0264 µM.

For the compound `O=C(Nc1ccc(-n2ccc(C(F)(F)F)n2)c(-c2nnn[nH]2)c1)C1(c2ccc(OC(F)(F)F)cc2F)CC1` [Example 363, 1-[2-Fluoro-4-(trifluoromethoxy)phenyl]-N-{3-(1H-tetrazol-5-yl)-4-[3-(trifluoromethyl)-1H-pyrazol-1-yl]phenyl}cyclopro-panecarboxa-mide], the concentration for half-maximal inhibition (IC50) stood at 0.0371 µM.

The same assay, now with this note: in presence of 0.1% BSA, read-out: hB1 IC50.
Regarding `COc1ncc(-c2ccc(NC(=O)C3(c4cccc(Cl)c4)CC3)cc2-c2nnn[nH]2)cn1` [Example 333, 1-(3-chlorophenyl)-N-[4-(2-methoxypyrimidin-5-yl)-3-(1H-tetrazol-5-yl)phenyl]cyclopro-panecarboxa-mide], the IC50 is 0.42 µM.

Turning to `N#Cc1ncc(-c2ccc(NC(=O)C3(c4cccc(Cl)c4)CC3)cc2-c2nnn[nH]2)cn1` [Example 334, 1-(3-chlorophenyl)-N-[4-(2-cyanopyrimidin-5-yl)-3-(1H-tetrazol-5-yl)phenyl]cyclopro-panecarboxa-mide], the IC50 came to 0.936 µM.

In the case of `O=C(Nc1ccc(-c2cncc(F)c2)c(-c2nnn[nH]2)c1)C1(c2cccc(Cl)c2)CC1` [Example 335, 1-(3-chlorophenyl)-N-[4-(5-fluoropyridin-3-yl)-3-(1H-tetrazol-5-yl)phenyl]cyclopro-panecarboxa-mide], the 50% inhibitory concentration (IC50) was 0.517 µM.

For `N#Cc1cncc(-c2ccc(NC(=O)C3(c4cccc(Cl)c4)CC3)cc2-c2nnn[nH]2)c1` [Example 336, 1-(3-chlorophenyl)-N-[4-(5-cyanopyridin-3-yl)-3-(1H-tetrazol-5-yl)phenyl]cyclopro-panecarboxa-mide], the IC50 was 1.32 µM.

On to `N#Cc1cc(F)cc(-c2ccc(NC(=O)C3(c4cccc(Cl)c4)CC3)cc2-c2nnn[nH]2)c1` [Example 337, 1-(3-chlorophenyl)-N-[3′-cyano-5′-fluoro-2-(1H-tetrazol-5-yl)biphenyl-4-yl]cyclopropane carboxamide], for which the IC50 is 2.03 µM.

For the compound `Cn1ncc2cc(-c3ccc(NC(=O)C4(c5cccc(Cl)c5)CC4)cc3-c3nnn[nH]3)ccc21` [Example 339, 1-(3-chlorophenyl)-N-[4-(1-methyl-1H-indazol-5-yl)-3-(1H-tetrazol-5-yll)phenyl]cyclopro-panecarboxa-mide], the IC50 stood at 0.0467 µM.

Turning to `O=C(Nc1ccc(-c2ccc(Cl)nc2)c(-c2nnn[nH]2)c1)C1(c2cccc(Cl)c2)CC1` [Example 341, 1-(3-chlorophenyl)-N-[4-(6-chloropyridin-3-yl)-3-(1H-tetrazol-5-yl)phenyl]cyclopro-panecarboxa-mide], the IC50 turned out to be 0.115 µM.

Consider `CCOc1ccc(-c2cc(F)c(NC(=O)C3(c4cccc(Cl)c4)CC3)cc2-c2nnn[nH]2)cn1` [Example 342, 1-(3-chlorophenyl)-N-[4-(6-ethoxypyridin-3-yl)-2-fluoro-5-(1H-tetrazol-5-yl)phenyl]cyclopro-panecarboxa-mide], for which the IC50 came out at 1.77 µM.

The values above are taken from patent US20210317092A1 (BAYER PHARMA AKTIENGESELLSCHAFT, priority 2016, published 2021).
